Here are results for 22 compounds from ChEMBL document CHEMBL1201862, “PubChem BioAssay data set” (2004).

Series [1] concerns the target T1, Alkaline phosphatase, tissue-nonspecific isozyme (Homo sapiens, UniProt P05186).
T1 sequence (P05186 whole entry): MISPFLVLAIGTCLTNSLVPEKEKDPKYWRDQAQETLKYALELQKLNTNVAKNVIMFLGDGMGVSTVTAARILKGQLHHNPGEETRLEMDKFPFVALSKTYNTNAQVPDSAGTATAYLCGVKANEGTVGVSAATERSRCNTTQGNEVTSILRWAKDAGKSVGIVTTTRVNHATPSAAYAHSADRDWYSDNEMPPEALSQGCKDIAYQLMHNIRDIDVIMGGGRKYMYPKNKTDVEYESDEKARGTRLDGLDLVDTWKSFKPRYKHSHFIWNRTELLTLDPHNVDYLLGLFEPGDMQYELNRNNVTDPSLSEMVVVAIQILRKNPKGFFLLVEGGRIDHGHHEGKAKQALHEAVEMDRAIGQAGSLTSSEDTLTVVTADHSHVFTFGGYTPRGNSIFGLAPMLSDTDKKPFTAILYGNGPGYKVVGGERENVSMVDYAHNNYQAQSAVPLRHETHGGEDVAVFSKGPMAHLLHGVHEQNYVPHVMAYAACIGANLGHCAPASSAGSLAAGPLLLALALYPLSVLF
Put plainly: potency against alkaline phosphatase TNAP – biochemical, luminescent, dose response, SAR follow-up (AID 1056).

Series [2] concerns the target Glyceraldehyde-3-phosphate dehydrogenase (Homo sapiens, UniProt P04406).
Series [3] deals with T2, Fatty acid synthase (Homo sapiens, UniProt P49327). The experiment in a line: inhibition of human FAS-TE enzyme activity – biochemical, kinetic fluorescence intensity, dose response (AID 624326).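 Further: rate of fluorescence rise from hydrolysis of a fluorogenic O-methyl fluorescein ester substrate.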 Type of series: functional.
T2 sequence (P49327 whole entry): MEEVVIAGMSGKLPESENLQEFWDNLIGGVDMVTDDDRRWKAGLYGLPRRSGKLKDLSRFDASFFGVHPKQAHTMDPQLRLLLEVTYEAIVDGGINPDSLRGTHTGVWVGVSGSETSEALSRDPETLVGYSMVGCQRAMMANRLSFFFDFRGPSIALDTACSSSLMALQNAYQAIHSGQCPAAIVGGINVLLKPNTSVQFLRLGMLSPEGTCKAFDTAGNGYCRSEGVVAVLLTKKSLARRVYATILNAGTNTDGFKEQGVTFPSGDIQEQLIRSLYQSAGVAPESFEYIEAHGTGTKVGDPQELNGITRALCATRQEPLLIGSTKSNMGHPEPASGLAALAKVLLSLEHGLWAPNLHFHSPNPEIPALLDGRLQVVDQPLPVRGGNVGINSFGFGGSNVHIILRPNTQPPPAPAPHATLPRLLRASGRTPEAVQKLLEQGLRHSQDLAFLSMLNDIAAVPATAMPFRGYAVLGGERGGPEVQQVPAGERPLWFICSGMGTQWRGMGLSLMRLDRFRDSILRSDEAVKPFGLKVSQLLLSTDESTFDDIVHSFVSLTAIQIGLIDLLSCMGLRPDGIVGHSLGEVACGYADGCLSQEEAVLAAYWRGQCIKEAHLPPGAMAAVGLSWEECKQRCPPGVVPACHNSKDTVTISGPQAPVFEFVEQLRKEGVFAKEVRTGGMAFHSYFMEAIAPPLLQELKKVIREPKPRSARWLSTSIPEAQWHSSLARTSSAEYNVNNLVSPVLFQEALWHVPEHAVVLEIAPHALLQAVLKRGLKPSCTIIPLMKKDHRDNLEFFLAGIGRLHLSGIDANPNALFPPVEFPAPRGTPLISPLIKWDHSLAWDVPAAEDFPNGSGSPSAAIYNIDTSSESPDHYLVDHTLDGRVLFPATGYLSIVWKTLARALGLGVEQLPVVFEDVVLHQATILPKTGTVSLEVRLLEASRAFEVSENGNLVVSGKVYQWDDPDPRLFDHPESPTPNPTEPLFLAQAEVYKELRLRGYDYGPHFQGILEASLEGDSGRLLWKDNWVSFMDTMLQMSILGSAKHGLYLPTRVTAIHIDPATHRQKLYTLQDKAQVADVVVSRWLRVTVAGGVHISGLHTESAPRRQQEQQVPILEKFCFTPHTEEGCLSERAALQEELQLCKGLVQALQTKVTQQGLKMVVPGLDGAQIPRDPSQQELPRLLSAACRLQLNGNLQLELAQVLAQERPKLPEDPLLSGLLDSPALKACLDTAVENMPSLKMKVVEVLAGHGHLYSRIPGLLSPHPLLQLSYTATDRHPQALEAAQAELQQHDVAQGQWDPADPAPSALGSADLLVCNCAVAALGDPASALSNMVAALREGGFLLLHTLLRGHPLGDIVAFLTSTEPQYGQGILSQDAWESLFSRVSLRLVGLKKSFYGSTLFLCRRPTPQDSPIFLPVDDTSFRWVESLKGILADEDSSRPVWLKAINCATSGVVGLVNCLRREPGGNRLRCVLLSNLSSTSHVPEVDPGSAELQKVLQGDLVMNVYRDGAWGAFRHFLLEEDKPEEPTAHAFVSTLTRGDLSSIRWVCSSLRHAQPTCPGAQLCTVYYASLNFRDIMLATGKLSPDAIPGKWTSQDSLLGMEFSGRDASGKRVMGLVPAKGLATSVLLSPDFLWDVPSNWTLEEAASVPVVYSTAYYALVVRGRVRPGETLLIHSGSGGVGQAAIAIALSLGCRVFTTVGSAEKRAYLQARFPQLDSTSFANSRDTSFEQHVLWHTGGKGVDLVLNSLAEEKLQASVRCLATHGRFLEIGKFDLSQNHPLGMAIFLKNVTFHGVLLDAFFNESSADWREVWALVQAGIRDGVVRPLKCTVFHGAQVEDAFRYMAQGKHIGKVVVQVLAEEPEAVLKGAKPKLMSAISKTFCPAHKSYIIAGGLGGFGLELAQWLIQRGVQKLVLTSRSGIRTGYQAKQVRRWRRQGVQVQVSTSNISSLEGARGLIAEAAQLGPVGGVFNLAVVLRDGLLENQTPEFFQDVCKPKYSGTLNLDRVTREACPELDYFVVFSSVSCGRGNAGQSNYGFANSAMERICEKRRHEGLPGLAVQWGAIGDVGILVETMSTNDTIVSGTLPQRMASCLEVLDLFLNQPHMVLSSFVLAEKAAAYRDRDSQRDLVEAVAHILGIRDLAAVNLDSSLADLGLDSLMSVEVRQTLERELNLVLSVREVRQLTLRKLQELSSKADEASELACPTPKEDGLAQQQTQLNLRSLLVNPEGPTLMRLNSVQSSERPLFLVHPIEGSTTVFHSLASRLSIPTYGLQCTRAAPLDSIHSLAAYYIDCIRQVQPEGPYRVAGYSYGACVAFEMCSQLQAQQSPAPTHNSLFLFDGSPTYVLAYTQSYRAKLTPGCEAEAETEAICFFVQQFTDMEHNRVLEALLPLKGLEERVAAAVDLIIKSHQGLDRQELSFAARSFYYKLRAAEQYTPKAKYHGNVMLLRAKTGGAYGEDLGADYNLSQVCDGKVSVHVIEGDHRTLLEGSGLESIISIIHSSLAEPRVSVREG
In series [4] the target is T2, Fatty acid synthase. The experiment in a line: inhibition of human FAS-TE enzyme activity – biochemical, endpoint fluorescence intensity, uHTS hits, dose response (AID 624327).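 Further: fluorescence from hydrolysis of an O-methyl fluorescein acyl ester substrate by the enzyme.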 Type of series: functional.
Series [5] concerns BJ. Put plainly: cells. The class given is functional, cell-based. The conditions noted are these: Homo sapiens.
Series [6] deals with BJ. The experiment in a line: BJ-TERT-LT-ST fibroblast viability loss – cell-based, RAS-independent, luminescence, dose response (AID 1935).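 Further: BJ fibroblasts immortalized with TERT plus LT and ST oncogenes.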 The class given is functional. As to conditions: Homo sapiens.
For series [7], the system named is BJ. Put plainly: growth inhibition of engineered Ras-driven BJ cells – cell-based, alamar blue fluorescence, cherrypicked samples, dose response (AID 2631).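 Further: confirmatory dose-response assay in RAS-dependent BJ fibroblasts engineered with TERT, LT and ST, with cytotoxicity read by fluorescence.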 Type of series: functional. As to conditions: Homo sapiens.
A short description of series [8]: DRD fibroblast viability loss – cell-based, non-viral oncogenic, luminescence, dose response (AID 1934). The class given is functional. As to conditions: Homo sapiens.
Series [9] is described as follows: HEK-293T viability loss after treatment – luminescence, T-cell screen hits, cytotoxicity control for TCR NF-kB inhibitor project, dose response (AID 489026).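 Further: cells exposed to compound about 14 hours before the viability readout.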 Type of series: functional, cell-based.
Series [10] relates to BJ. The experiment in a line: BJ-TERT fibroblast viability loss – cell-based, RAS-independent, luminescence, dose response (AID 1933). Type of series: functional. The conditions noted are these: Homo sapiens.
In series [11] the test system is Escherichia coli. The experiment in a line: microbe, parasite or virus in culture.
Series [12] has as its system HEK293. Put plainly: cells. As to conditions: Homo sapiens. The class given is functional, cell-based.
Series [13] has as its system HEK293. The experiment in a line: cells. The conditions noted are these: Homo sapiens. Type of series: functional, cell-based. The source holds these as a separate data set.
Series [14] deals with HEK293. The experiment in a line: NOD2 signaling inhibitors in MDP-stimulated cells, cell-based, uHTS, luminescence (AID 2001). Type of series: functional. The conditions noted are these: Homo sapiens.
For series [15], the system named is HEK293. The experiment in a line: inhibition of NOD1-driven NF-kB reporter – cell-based, luminescence, uHTS, primary screen (AID 1578). Type of series: functional. As to conditions: Homo sapiens.
Series [16] deals with T3, Nuclear receptor subfamily 0 group B member 1 (Homo sapiens, UniProt P51843).
T3 sequence (P51843 whole entry): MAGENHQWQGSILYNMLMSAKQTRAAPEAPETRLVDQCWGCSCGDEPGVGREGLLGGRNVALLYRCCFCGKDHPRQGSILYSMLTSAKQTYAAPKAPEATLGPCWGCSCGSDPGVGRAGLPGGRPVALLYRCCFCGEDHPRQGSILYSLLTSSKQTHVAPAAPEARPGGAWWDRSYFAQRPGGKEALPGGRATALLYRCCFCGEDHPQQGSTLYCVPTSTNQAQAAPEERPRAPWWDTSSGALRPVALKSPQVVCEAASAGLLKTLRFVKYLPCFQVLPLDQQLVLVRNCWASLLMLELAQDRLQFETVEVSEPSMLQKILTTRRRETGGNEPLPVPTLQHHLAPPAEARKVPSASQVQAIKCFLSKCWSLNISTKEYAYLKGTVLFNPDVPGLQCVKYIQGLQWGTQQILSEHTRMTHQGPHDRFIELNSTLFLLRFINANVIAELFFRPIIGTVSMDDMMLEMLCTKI
The class given is functional, cell-based.

The nature of series [17]: cells. Type of series: functional, cell-based.
The nature of series [18]: alpha-synuclein stem-loop luciferase translation blockers – H4 neuroglioma cells, luminescence, confirmation (AID 1988). Type of series: functional, cell-based.
The nature of series [19]: Luminescence Cell-Based Dose Response HTS to Identify Inhibitors of 5'UTR Stem-Loop Driven Prion Protein mRNA Translation in H4 Neuroglioblastoma Cells. [Related pubchem assays: 1827 (Project Summary), 1813 (Primary HTS)]. The class given is functional.
The nature of series [20]: luciferase reporter signal suppression in cells – H4 neuroglioma cells, luminescence, dose response (AID 1990). The class given is functional, cell-based. Background: In a reporter assay the amount or activity of a reporter protein is the signal.
Series [21] is described as follows: microbe, parasite or virus in culture. As to conditions: Mycobacterium tuberculosis. Type of series: functional.
The target of series [22] is Nonstructural protein 1 (Influenza A virus, UniProt Q194T2). Type of series: functional, Influenza A virus (A/California/07/2009(H1N1)).
Chain of Nonstructural protein 1 (Q194T2 whole entry): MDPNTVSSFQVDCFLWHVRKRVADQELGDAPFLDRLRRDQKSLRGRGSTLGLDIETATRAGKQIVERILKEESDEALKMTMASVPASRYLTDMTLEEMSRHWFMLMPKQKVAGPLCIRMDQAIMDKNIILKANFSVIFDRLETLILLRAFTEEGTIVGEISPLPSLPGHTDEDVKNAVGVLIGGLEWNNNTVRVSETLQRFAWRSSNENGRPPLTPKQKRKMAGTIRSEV
Series [23] addresses T4, Coagulation factor XII (Homo sapiens, UniProt P00748).
T4 sequence (P00748 whole entry): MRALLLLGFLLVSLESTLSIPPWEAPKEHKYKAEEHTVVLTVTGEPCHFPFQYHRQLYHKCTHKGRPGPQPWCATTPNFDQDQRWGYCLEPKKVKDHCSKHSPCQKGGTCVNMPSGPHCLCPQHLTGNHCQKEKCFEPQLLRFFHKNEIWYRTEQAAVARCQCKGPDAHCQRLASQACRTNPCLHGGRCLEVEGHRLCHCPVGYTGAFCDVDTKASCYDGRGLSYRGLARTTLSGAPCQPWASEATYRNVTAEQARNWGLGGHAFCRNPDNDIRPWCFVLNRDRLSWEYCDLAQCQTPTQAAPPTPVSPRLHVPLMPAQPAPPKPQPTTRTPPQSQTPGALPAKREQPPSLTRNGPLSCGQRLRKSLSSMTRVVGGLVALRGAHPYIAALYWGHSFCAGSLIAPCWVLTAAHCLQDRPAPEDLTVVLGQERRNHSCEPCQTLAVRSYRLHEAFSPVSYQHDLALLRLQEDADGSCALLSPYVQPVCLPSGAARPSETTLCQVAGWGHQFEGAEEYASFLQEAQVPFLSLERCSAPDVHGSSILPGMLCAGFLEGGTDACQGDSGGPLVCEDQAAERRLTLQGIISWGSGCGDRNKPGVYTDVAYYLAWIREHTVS
The class given is functional.

Series [24] deals with T5, Calpain-2 catalytic subunit (Sus scrofa, UniProt P43367).
T5 sequence (P43367 whole entry): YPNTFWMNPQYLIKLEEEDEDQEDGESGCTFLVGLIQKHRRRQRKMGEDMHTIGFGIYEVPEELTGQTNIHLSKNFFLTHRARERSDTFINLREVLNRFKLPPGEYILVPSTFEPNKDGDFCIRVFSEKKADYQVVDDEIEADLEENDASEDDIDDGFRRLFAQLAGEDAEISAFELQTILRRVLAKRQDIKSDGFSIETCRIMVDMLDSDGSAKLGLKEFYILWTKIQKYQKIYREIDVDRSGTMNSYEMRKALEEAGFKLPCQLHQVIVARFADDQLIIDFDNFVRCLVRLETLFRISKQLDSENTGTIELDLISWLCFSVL
Put plainly: m-calpain protease blockers, concentration series – biochemical, fluorogenic peptide substrate, dose response (AID 1420). Type of series: functional.

Series [25] deals with Cytochrome P450 3A4 (Homo sapiens, UniProt P08684).
Chain of Cytochrome P450 3A4 (P08684 whole entry): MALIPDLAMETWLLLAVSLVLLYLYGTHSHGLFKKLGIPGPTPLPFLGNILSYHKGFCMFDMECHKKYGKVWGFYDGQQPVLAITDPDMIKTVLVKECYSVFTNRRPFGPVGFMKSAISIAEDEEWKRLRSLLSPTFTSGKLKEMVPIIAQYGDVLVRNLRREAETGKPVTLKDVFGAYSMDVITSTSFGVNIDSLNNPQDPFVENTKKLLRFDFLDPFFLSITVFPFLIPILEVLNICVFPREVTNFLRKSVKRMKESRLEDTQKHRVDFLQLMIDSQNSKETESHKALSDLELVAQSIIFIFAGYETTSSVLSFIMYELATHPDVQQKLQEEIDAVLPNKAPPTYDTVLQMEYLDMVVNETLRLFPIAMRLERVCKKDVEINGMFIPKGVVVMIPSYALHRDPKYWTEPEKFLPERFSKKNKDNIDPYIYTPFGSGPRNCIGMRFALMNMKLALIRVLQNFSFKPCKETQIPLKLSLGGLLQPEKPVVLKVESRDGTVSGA

Activity calls are given as the source filed them. Where only a bound is given, the exact number is not on record here.

Chain of Glyceraldehyde-3-phosphate dehydrogenase (P04406 whole entry): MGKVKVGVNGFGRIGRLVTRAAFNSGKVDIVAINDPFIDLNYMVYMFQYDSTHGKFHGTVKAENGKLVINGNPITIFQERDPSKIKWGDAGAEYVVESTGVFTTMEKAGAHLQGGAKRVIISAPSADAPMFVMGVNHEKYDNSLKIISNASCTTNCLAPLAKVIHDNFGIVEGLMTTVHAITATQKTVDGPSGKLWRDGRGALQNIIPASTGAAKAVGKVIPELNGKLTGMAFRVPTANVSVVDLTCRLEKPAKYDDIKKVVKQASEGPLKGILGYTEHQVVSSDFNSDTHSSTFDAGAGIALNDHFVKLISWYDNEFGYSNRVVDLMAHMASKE

Consider `CCOC(=O)c1nnc(-c2ccccc2)o1`, for which the figures for the IC50 in [1] and in series [2] were > 100 µM (inactive) and > 100 µM (not active), respectively.

Take `O=C(COC(=O)c1cc([N+](=O)[O-])ccc1NCCO)Nc1cccc(S(=O)(=O)N2CCCC2)c1`: the IC50 in series [3] is 4.57 µM (active); in series [4] it was 6.67 µM (active).

As for `O=C(Nc1ccc([N+](=O)[O-])cc1)Nc1ccon1`, the concentration giving a half-maximal response (EC50) in [5] is 12.1 µM (active); in [6] it was 4.66 µM (active); in [7], < 0.104 µM (active); in series [8], 1.21 µM (active); in series [10], 1.57 µM (active). The IC50 in series [9] is > 80 µM (inactive).

As to `CCNC(=O)OCC12CC3CC(CC(C3)C1)C2`, the AC50 in series [11] was 33.5 µM (active).

For `CCCC(C)C(=O)Nc1cc([N+](=O)[O-])ccc1Cl` (stereo unspecified), the IC50 in series [3] is 11.8 µM (active); in [4] it was 12.2 µM (active).

Consider `COc1ccc(NC(=O)Nc2nnc(-c3ccncc3)s2)cc1`, for which the figures for the IC50 in series [12], in [13] and in [14] were 5.85 µM (active), > 20 µM (inactive) and 6.01 µM (active), respectively. The EC50 in series [15] is 5.39 µM (active).

As to `Cn1cccc1C(=O)NCC1COc2ccccc2O1` (stereo unspecified), the IC50 in series [16] and in series [17] was > 67.5 µM (inactive) throughout.

Regarding `CCn1c2ccc(C)cc2c2nnc(SCCN3CCOCC3)nc21`, the half-maximal activity concentration (AC50) in series [11] is 89.7 µM (active).

Turning to `ClC1=C(Cl)C(Cl)=C(Cl)C1=C/C=C/c1ccccc1`, the EC50 was 3.43 µM (active) in series [18]; 10.9 µM (active) in [19]; 2.98 µM (active) in [5]; 2.42 µM (inconclusive) in series [6]; 1.25 µM (active) in series [7]; 2.45 µM (active) in series [8]. For the same compound, the concentration giving a half-maximal response (EC50) in series [10] was 2.55 µM (inconclusive); in [20] it was 3.75 µM (inconclusive). Further, in series [21], the CC50 was 7.07 µM (active). Besides, in series [22], the concentration for half-maximal inhibition (IC50) is 33.6 µM (active).

For the compound `Cc1ccc(NC(=O)NCc2ccc3c(c2)OCO3)cc1`, the IC50 in series [23] was > 50 µM (inactive).

As to `COc1ccc(OC)c(CNc2ccc([N+](=O)[O-])cc2C)c1`, the IC50 in series [24] was 8.98 µM (not active); in series [23] it was > 50 µM (inactive).

With `Cc1cc(C(C)(C)C)cc(C)c1COC(=O)CN1C(=O)NC2(CCCC2)C1=O`, the figures for the IC50 in series [3] and in series [4] were 13.2 µM (active) and 15.8 µM (active), respectively.

For the compound `COc1ccccc1NS(=O)(=O)c1cc(NC(C)=O)ccc1N1CCCCC1`, the half-maximal activity concentration (AC50) in series [11] was 30.4 µM (active).

As for `CN(C(=O)COC(=O)c1cc(-c2ccc(Br)cc2)[nH]n1)C1CCCCC1`, the IC50 in [1] was > 100 µM (inactive); in series [2] it was > 100 µM (not active).

As to `O=C(N[C@H](C(=O)O)c1ccccc1)C1CCC(Cn2nnc3ccccc3c2=O)CC1` (stereo partly specified), the IC50 in series [23] was > 50 µM (inactive).

As to `c1cncc(-n2cnnn2)c1`, the IC50 in series [1] is > 100 µM (inactive); in series [2], > 100 µM (not active).

In the case of `COc1ccccc1C=C1CCc2ccccc2C1=O`, the IC50 in series [16] and in series [17] was > 67.5 µM (inactive) throughout.

On to `COc1ccccc1-c1nnc2n1N=C(c1ccc3c(c1)OCO3)CS2`, for which the IC50 in series [16] and in series [17] was > 67.6 µM (inactive) in each case.

With `COc1ccccc1N1CCN(C/C(O)=C(\C#N)c2nc(-c3ccccc3)cs2)CC1`, in series [23], the IC50 was > 50 µM (inactive).

In the case of `CC(C)/N=C/c1c(O)[nH]c2ccccc12`, in series [23], the IC50 was > 50 µM (inactive).

With `COc1ccc2c(c1)CCC/C2=N\NC(=O)c1ccoc1C`, the IC50 in [16] and in series [17] was > 67.5 µM (inactive) in each case.

As for `Cn1c(=O)[nH]c2ncn(C)c2c1=O` [PARAXANTHINE], the half-maximal activity concentration (AC50) in series [11] was 23.3 µM (active); in [25], “inconclusive”.

The IC50 is the concentration needed to halve the response being measured. By EC50 is commonly meant the concentration that produces a half-maximal response. In general, AC50 refers to the concentration at which the activity in the assay is half-maximal.
